{
  "source": "patent US9340504B2",
  "about": "“Pyridine and piperidine derivatives as novel sodium channel blockers” (priority 2013, dated 2016)",
  "data": [
    {"molecular_target": "human Nav1.7 (Homo sapiens (Human), UniProt Q15858)", "sequence (Q15858 with tags, fused parts or gaps limits assumed)": "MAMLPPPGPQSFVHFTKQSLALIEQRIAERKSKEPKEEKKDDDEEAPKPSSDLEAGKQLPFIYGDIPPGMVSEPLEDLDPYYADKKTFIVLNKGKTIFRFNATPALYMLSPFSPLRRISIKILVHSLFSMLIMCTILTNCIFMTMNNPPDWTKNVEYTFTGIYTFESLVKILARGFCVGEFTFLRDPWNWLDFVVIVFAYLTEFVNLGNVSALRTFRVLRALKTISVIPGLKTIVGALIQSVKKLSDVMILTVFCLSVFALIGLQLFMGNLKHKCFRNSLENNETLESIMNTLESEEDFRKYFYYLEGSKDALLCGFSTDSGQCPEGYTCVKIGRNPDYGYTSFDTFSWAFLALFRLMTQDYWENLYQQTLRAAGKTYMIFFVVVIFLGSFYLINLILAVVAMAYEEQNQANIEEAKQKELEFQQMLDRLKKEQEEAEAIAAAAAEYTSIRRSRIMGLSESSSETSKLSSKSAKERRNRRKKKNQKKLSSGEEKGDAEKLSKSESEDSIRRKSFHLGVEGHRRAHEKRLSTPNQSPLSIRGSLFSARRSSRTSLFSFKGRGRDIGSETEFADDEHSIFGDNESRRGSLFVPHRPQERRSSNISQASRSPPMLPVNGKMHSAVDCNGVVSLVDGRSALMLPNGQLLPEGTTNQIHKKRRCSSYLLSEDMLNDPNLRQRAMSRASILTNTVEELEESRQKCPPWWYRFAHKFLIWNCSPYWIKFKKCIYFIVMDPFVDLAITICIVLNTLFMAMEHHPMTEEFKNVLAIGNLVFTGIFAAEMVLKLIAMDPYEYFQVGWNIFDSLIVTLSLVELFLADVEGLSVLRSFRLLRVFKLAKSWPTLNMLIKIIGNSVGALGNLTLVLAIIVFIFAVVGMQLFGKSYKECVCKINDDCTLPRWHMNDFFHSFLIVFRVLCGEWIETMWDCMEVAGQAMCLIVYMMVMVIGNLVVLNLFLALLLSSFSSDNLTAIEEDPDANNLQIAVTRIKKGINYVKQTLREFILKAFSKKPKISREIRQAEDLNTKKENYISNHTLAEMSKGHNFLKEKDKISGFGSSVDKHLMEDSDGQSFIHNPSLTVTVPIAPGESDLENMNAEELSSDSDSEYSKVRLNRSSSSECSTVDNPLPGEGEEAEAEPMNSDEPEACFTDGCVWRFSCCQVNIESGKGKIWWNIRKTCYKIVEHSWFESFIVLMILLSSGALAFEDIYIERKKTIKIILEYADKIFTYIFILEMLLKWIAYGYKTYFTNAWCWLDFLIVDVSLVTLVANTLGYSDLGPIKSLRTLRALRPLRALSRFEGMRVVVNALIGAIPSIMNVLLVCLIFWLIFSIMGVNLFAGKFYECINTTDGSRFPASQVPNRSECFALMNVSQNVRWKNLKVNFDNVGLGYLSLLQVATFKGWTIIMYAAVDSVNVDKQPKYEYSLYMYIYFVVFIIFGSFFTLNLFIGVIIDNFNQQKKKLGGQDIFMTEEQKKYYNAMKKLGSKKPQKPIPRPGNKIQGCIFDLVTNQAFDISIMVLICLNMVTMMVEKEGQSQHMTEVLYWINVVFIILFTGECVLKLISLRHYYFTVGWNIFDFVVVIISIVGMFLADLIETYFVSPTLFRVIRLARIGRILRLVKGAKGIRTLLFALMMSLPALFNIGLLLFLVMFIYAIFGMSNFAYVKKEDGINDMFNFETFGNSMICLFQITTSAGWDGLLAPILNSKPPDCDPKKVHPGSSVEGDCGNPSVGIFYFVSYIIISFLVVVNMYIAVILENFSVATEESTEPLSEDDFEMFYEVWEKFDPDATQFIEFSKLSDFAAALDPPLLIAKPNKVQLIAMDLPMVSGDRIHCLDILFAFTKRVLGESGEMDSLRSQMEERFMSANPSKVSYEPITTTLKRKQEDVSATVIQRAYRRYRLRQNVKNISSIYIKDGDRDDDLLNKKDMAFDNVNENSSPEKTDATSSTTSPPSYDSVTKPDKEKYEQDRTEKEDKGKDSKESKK", "experiment": "FLIPR or FLIPR TETRA sodium dye assay with KCl and test article pre-incubation", "assay_type": "cell-based", "details": "read-out: Nav1.7 Activity (μM) FLIPR assay IC50 (μM) ± SEM", "units": {"IC50": "µM"}, "values": [
      {"molecule": "COc1ncc(-c2ccccc2Cc2cccc(-c3ccc(OCC(F)(F)F)nc3)n2)cn1", "note": "[Compound 13, 6-(2-(2-methoxypyrimidin-5-yl)benzyl)-6′-(2,2,2-trifluoroethoxy)-2,3′-bipyridine]", "IC50": "0.849 ± 0.069"}
    ]},
    {"molecular_target": "human Nav1.7 (Homo sapiens (Human), UniProt Q15858)", "experiment": "FLIPR or FLIPR TETRA sodium dye assay with KCl and test article pre-incubation", "assay_type": "cell-based", "details": "recombinant HEK293 cells expressing human Nav1.7 alpha subunit; CoroNa Green sodium dye; veratridine and scorpion venom as agonists; read-out: Nav1.7 Activity (μM) FLIPR assay IC50 (μM) ± SEM", "units": {"IC50": "µM"}, "values": [
      {"molecule": "Oc1ccccc1Cc1cccc(-c2ccc(OCC(F)(F)F)nc2)n1", "note": "[Compound 8, 2-((6′-(2,2,2-trifluoroethoxy)-[2,3′-bipyridin]-6-yl)methyl)phenol]", "IC50": "> 20"},
      {"molecule": "COc1ncccc1-c1ccccc1Cc1cccc(-c2ccc(OCC(F)(F)F)nc2)n1", "note": "[Compound 11, 6-(2-(2-methoxypyridin-3-yl)benzyl)-6′-(2,2,2-trifluoroethoxy)-2,3′-bipyridine]", "IC50": "> 20"},
      {"molecule": "Fc1ccc(-c2ccccc2Cc2cccc(-c3ccc(OCC(F)(F)F)nc3)n2)cn1", "note": "[Compound 12, 6-(2-(6-fluoropyridin-3-yl)benzyl)-6′-(2,2,2-trifluoroethoxy)-2,3′-bipyridine]", "IC50": "> 20"},
      {"molecule": "CSc1ncc(-c2ccccc2Cc2cccc(-c3ccc(OCC(F)(F)F)nc3)n2)cn1", "note": "[Compound 14, 6-(2-(2-(methylthio)pyrimidin-5-yl)benzyl)-6′-(2,2,2-trifluoroethoxy)-2,3′-bipyridine]", "IC50": "0.947 ± 0.06"},
      {"molecule": "CN(C)c1ncc(-c2ccccc2Cc2cccc(-c3ccc(OCC(F)(F)F)nc3)n2)cn1", "note": "[Compound 15, N,N-dimethyl-5-(2-((6′-(2,2,2-trifluoroethoxy)-[2,3′-bipyridin]-6-yl)methyl)phenyl)pyrimidin-2-amine]", "IC50": "0.34 ± 0.012"}
    ]}
  ]
}
